The record followed here is patent US20180344671A1, “Cysteamine as Neutrophil Elastase Inhibitor” (Novabiotics Limited, priority 2017, published 2018).

Test [1] deals with T1, human neutrophil elastase (Homo sapiens, UniProt P08246).
T1 sequence (P08246 30-267): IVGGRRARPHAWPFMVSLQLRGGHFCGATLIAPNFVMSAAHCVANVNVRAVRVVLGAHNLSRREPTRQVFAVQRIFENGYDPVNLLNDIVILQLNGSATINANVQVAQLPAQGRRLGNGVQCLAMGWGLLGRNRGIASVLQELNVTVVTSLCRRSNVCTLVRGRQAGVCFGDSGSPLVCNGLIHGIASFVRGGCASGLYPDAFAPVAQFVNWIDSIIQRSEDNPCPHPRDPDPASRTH
The test is described as follows: SDS PAGE of recombinant human neutrophil elastase treated with cysteamine and derivatives. To be noted: FIG. 3; 2.5 μg NE with 2.5 or 5 μg compound, 1 h at 37° C., 8-16% Tris-Glycine SDS gel. As for the experimental part: FIG. 3: The banding pattern and relative staining intensity of recombinant human neutrophil elastase is altered by the addition of cysteamine bitartrate and cysteamine free base. […] This 8-16% gradient Tri-Glycine SDS gel is loaded with a molecular weight marker and: 1. Recombinant human neutrophil elastase [2.5 μg total]; 2. Recombinant human neutrophil elastase [2.5 μg total] and cysteamine bitartrate [2.5 μg total]; 3. Recombinant human neutrophil elastase [2.5 μg total] and cysteamine bitartrate [5 μg total]; 4. Recombinant human neutrophil elastase [2.5 μg total] and cysteamine free base [2.5 μg total]; 5. Recombinant human neutrophil elastase [2.5 μg total] and cysteamine free base [5 μg total]; 6. Recombinant human neutrophil elastase [2.5 μg total] and cystamine dihydrochloride [2.5 μg total]; 7. Recombinant human neutrophil elastase [2.5 μg total] and cystamine dihydrochloride [5 μg total].
Recombinant proteins were treated with or without cysteamine and its derivatives at the concentrations stated in the figures below for 1 h at 37° C. prior to addition of 2× sample buffer and electrophoretic separation on pre-cast 8-16% tris-glycine SDS polyacrylamide gradient gel (Life Technologies) under a constant voltage of 120V in tris-glycine running buffer until the dye front reached the end of the gel. Samples were not heated prior to loading to minimize denaturation of disulphide bonds on the denaturing gel. Precision Plus (Bio-Rad) prestained protein standards were used alongside samples. After electrophoresis gels were carefully removed from the plastic cassettes and washed in sterile distilled water to remove SDS 3× for 5 min. Protein bands were visualized using coomassie-based Simply Blue™ Safe Stain (Life Technologies) staining for 1 h at room temperature. The gel was washed overnight in sterile distilled water, and for a further hour in fresh water prior to photographing.

Test [2] addresses T1, human neutrophil elastase. The test is described as follows: Neutrophil Elastase Inhibitor Screening Kit (Sigma MAK213), fluorometric. Type of test: biochemical. Also on record: purchased Sigma-Aldrich MAK213. To be noted: for effect on human neutrophil elastase activity measured fluorometrically: FIG. 2, result in words; for Relative inhibition of NE activity (%): 30 min, 37° C. The procedure:
Neutrophil Elastase Inhibitor Screening Kit is available from Sigma-Aldrich, catalogue number MAK213. This kit measures neutrophil elastase activity by detecting the hydrolysis and release of a fluorescent product. It allows for the screening of unknown substances for inhibitory activity and compares with a positive inhibitor control. Cysteamine free base, cysteamine bitartrate, and cystamine dihydrochloride were prepared in the assay buffer provided at four times the final testing concentration and combined with enzyme and substrate as appropriate and as defined in the full protocol. Samples were prepared in 96 well microtiter plates with black well walls. Background fluorescence can be determined by omitting the neutrophil elastase from a sample blank control. Fluorescence was measured at 400ex/505em nm on a Biotek Synergy plate reader over 30 min at an incubation temperature of 37° C. Relative inhibition is determined by the following equations: Slope=(Fluorescence 2−Fluorescence 1)/(Time 2−Time 1)=delta fluorescence/minute % Relative Inhibition=((SlopeEC−SlopeSM)/SlopeEC))×100 Where: SlopeSM=the slope of the sample inhibitor (cysteamine and derivatives) & SlopeEC=the slope of the Enzyme control.

Take `Cl.Cl.NCCSSCCN` [Cystamine dihydrochloride, cystamine dihydrochloride]: the “banding pattern and relative staining intensity of recombinant human neutrophil elastase” value in test [1] was “less of an effect”. Moreover, the “effect on human neutrophil elastase activity measured fluorometrically” value (shortened to “effect”) in test [2] was “minimal effect”.
With `NCCS.O=C(O)C(O)C(O)C(=O)O` (stereo not drawn) [Cysteamine bitartrate, cysteamine bitartrate], in test [1], the “banding pattern and relative staining intensity of recombinant human neutrophil elastase” value is given as “altered”. Also, the “Relative inhibition of NE activity (%)” value in test [2] (Cysteamine bitartrate concentration 20 μg/ml) was 12.526%; in test [2] (Cysteamine bitartrate concentration 200 μg/ml), 30.689%; in test [2] (Cysteamine bitartrate concentration 2000 μg/ml), 86.639%. For the same compound, the “effect” value in test [2] is reported as “effected human neutrophil elastase activity”.
`NCCS` [cysteamine free base, NH2—CH2—CH2—SH]: the “banding pattern and relative staining intensity of recombinant human neutrophil elastase” value in test [1] is “altered”. For the same compound, in test [2], the “effect” value is on record as “effected human neutrophil elastase activity”.
